From US20240262819A1, “NOVEL COMPOUNDS HAVING INHIBITORY ACTIVITY AGAINST GLUCOSYLCERAMIDE SYNTHASE OR PHARMACEUTICALLY ACCEPTABLE SALT THEREOF, PROCESSES FOR PREPARING THE SAME, AND PHARMACEUTICAL COMPOSITIONS COMPRISING THE SAME” (YUHAN CORPORATION, priority 2021, published 2024) come the findings set out here.

The target of test [1] is glucosylceramide synthase (GCS) (Homo sapiens (Human), UniProt Q16739). The test can be described thus: Evaluation of inhibitory activities against GCS (A549 cell lysate, NBD C6-ceramide, HPLC). Type of test: biochemical. Put shortly:
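GCS activity in A549 cell lysate (50 mM HEPES, pH 7.3) with NBD C6-ceramide, reacted 90 min at 37 °C. Lipids were chloroform/methanol-extracted and separated by normal-phase HPLC with fluorescence detection (ex 470/em 530 nm). GlcCer fraction of peak area was normalized between DMSO and ibiglustat, and IC50 obtained by curve fitting.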

Test [2] concerns GM1 production in Jurkat cells. The experiment in a line: cells. Type of test: cell-based.

The IC50 is the midpoint of a concentration-inhibition curve.

Read-outs that look alike come from different tables or passages of the source.

Chain of glucosylceramide synthase (GCS) (Q16739 whole entry): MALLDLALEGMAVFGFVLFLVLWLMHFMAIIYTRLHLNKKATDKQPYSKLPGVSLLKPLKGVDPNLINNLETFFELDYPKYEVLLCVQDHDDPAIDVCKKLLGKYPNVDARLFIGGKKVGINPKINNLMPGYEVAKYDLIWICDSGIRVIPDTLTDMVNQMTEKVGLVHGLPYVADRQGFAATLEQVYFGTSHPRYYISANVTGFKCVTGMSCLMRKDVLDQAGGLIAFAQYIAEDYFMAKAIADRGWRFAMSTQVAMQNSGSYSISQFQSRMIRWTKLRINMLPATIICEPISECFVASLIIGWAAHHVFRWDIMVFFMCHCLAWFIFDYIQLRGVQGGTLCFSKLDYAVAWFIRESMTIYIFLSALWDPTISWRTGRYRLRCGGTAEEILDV

For `CCCCOc1c(C)cc(-c2ccc3c(c2)CCC(C)(C)[C@H]3NC(=O)O[C@@H]2CN3CCC2CC3)cc1C` [Example 152, (S)-quinuclidin-3-yl((R)-6-(4-butoxy-3,5-dimethylphenyl)-2,2-dimethyl-1,2,3,4-tetrahydronaphthalen-1-yl)carbamate], the IC50 was 1.65 nM in test [1] and 8.3 nM in test [2] (Homo sapiens, Jurkat, 72 h).

On to `COc1cccc(-c2ccc3c(c2)CCC(C)(C)[C@H]3NC(=O)O[C@@H]2CN3CCC2CC3)c1` [Example 153, (S)-quinuclidin-3-yl((R)-6-(3-methoxyphenyl)-2,2-dimethyl-1,2,3,4-tetrahydronaphthalen-1-yl)carbamate], for which the half-inhibitory concentration (IC50) in test [1] was found to be 0.32 nM; in test [2] (Homo sapiens, Jurkat, 72 h) it was 2.1 nM.

As for `CCOc1cccc(-c2ccc3c(c2)CCC(C)(C)[C@H]3NC(=O)O[C@@H]2CN3CCC2CC3)c1` [Example 154, (S)-quinuclidin-3-yl((R)-6-(3-ethoxyphenyl)-2,2-dimethyl-1,2,3,4-tetrahydronaphthalen-1-yl)carbamate], the IC50 was found to be 0.38 nM in test [1] and 2.9 nM in test [2] (Homo sapiens, Jurkat, 72 h).

For `CCCCOc1cccc(-c2ccc3c(c2)CCC(C)(C)[C@H]3NC(=O)O[C@@H]2CN3CCC2CC3)c1` [Example 155, (S)-quinuclidin-3-yl((R)-6-(3-butoxyphenyl)-2,2-dimethyl-1,2,3,4-tetrahydronaphthalen-1-yl)carbamate], the IC50 in test [1] was found to be 0.39 nM; in test [2] (Homo sapiens, Jurkat, 72 h), 0.7 nM.

Turning to `CC(C)Cc1cccc(-c2ccc3c(c2)CCC(C)(C)[C@H]3NC(=O)O[C@@H]2CN3CCC2CC3)c1` [Example 157, (S)-quinuclidin-3-yl((R)-6-(3-isobutylphenyl)-2,2-dimethyl-1,2,3,4-tetrahydronaphthalen-1-yl)carbamate], the IC50 in test [1] is 0.81 nM; in test [2] (Homo sapiens, Jurkat, 72 h), 2.64 nM.

`CCCOc1cccc(-c2ccc3c(c2)CCC(C)(C)[C@H]3NC(=O)O[C@@H]2CN3CCC2CC3)c1` [Example 159, (S)-quinuclidin-3-yl((R)-2,2-dimethyl-6-(3-propoxyphenyl)-1,2,3,4-tetrahydronaphthalen-1-yl)carbamate]: the IC50 in test [1] worked out at 4.28 nM; in test [2] (Homo sapiens, Jurkat, 72 h), 1.7 nM.

As to `CC(C)Cc1ccc(-c2ccc3c(c2)CCC(C)(C)[C@H]3NC(=O)O[C@@H]2CN3CCC2CC3)cc1` [Example 160, (S)-quinuclidin-3-yl((R)-6-(4-isobutylphenyl)-2,2-dimethyl-1,2,3,4-tetrahydronaphthalen-1-yl)carbamate], the IC50 turned out to be 5.05 nM in test [1] and 3 nM in test [2] (Homo sapiens, Jurkat, 72 h).

On to `CC(C)COc1cccc(-c2ccc3c(c2)CCC(C)(C)[C@H]3NC(=O)O[C@@H]2CN3CCC2CC3)c1` [Example 163, (S)-quinuclidin-3-yl((R)-6-(3-isobutoxyphenyl)-2,2-dimethyl-1,2,3,4-tetrahydronaphthalen-1-yl)carbamate], for which the IC50 in test [1] was 8.05 nM; in test [2] (Homo sapiens, Jurkat, 72 h) it was 1.3 nM.

On to `CCOc1c(C)cc(-c2ccc3c(c2)CCC(C)(C)[C@H]3NC(=O)O[C@@H]2CN3CCC2CC3)cc1C` [Example 164, (S)-quinuclidin-3-yl((R)-6-(4-ethoxy-3,5-dimethylphenyl)-2,2-dimethyl-1,2,3,4-tetrahydronaphthalen-1-yl)carbamate], for which the IC50 came out at 1.39 nM in test [1] and 8.4 nM in test [2] (Homo sapiens, Jurkat, 72 h).

With `COc1ccc(-c2ccc3c(c2)CCC(C)(C)[C@H]3NC(=O)O[C@@H]2CN3CCC2CC3)cc1` [Example 166, (S)-quinuclidin-3-yl((R)-6-(4-methoxyphenyl)-2,2-dimethyl-1,2,3,4-tetrahydronaphthalen-1-yl)carbamate], the IC50 turned out to be 0.69 nM in test [1] and 5.9 nM in test [2] (Homo sapiens, Jurkat, 72 h).

For `CC(C)Oc1ccc(-c2ccc3c(c2)CCC(C)(C)[C@H]3NC(=O)O[C@@H]2CN3CCC2CC3)cc1` [Example 167, (S)-quinuclidin-3-yl((R)-6-(4-isopropoxyphenyl)-2,2-dimethyl-1,2,3,4-tetrahydronaphthalen-1-yl)carbamate], the IC50 is 0.37 nM in test [1] and 3.16 nM in test [2] (Homo sapiens, Jurkat, 72 h).

As for `CCc1ccc(-c2ccc3c(c2)CCC(C)(C)[C@H]3NC(=O)O[C@@H]2CN3CCC2CC3)cc1F` [Example 169, (S)-quinuclidin-3-yl((R)-6-(4-ethyl-3-fluorophenyl)-2,2-dimethyl-1,2,3,4-tetrahydronaphthalen-1-yl)carbamate], the half-maximal inhibitory concentration (IC50) in test [1] came to 0.14 nM; in test [2] (Homo sapiens, Jurkat, 72 h), 1.7 nM.

On to `CCc1ccc(-c2cc3c(cc2F)[C@H](NC(=O)O[C@@H]2CN4CCC2CC4)C(C)(C)CC3)cc1` [Example 170, (S)-quinuclidin-3-yl((R)-6-(4-ethylphenyl)-7-fluoro-2,2-dimethyl-1,2,3,4-tetrahydronaphthalen-1-yl)carbamate], for which the half-inhibitory concentration (IC50) in test [1] turned out to be 0.31 nM; in test [2] (Homo sapiens, Jurkat, 72 h), 1.4 nM.

On to `CCCCc1ccc(-c2cc3c(cc2F)[C@H](NC(=O)O[C@@H]2CN4CCC2CC4)C(C)(C)CC3)cc1` [Example 173, (S)-quinuclidin-3-yl((R)-6-(4-butylphenyl)-7-fluoro-2,2-dimethyl-1,2,3,4-tetrahydronaphthalen-1-yl)carbamate], for which the IC50 in test [1] came out at 0.24 nM; in test [2] (Homo sapiens, Jurkat, 72 h) it was 0.3 nM.

Consider `CC(C)Cc1ccc(-c2cc3c(cc2F)[C@H](NC(=O)O[C@@H]2CN4CCC2CC4)C(C)(C)CC3)cc1` [Example 174, (S)-quinuclidin-3-yl((R)-7-fluoro-6-(4-isobutylphenyl)-2,2-dimethyl-1,2,3,4-tetrahydronaphthalen-1-yl)carbamate], for which the half-inhibitory concentration (IC50) came out at 0.35 nM in test [1] and 0.9 nM in test [2] (Homo sapiens, Jurkat, 72 h).

`CCCCOc1ccc(-c2cc3c(cc2F)[C@H](NC(=O)O[C@@H]2CN4CCC2CC4)C(C)(C)CC3)cc1` [Example 178, (S)-quinuclidin-3-yl((R)-6-(4-butoxyphenyl)-7-fluoro-2,2-dimethyl-1,2,3,4-tetrahydronaphthalen-1-yl)carbamate]: the IC50 in test [1] was found to be 0.22 nM; in test [2] (Homo sapiens, Jurkat, 72 h) it was 0.4 nM.

Consider `CC(C)COc1ccc(-c2cc3c(cc2F)[C@H](NC(=O)O[C@@H]2CN4CCC2CC4)C(C)(C)CC3)cc1` [Example 179, (S)-quinuclidin-3-yl((R)-7-fluoro-6-(4-isobutoxyphenyl)-2,2-dimethyl-1,2,3,4-tetrahydronaphthalen-1-yl)carbamate], for which the IC50 in test [1] was found to be 0.19 nM; in test [2] (Homo sapiens, Jurkat, 72 h), 0.22 nM.

Turning to `Cc1cc(-c2cc3c(cc2F)[C@H](NC(=O)O[C@@H]2CN4CCC2CC4)C(C)(C)CC3)cc(C)c1OC(C)C` [Example 182, (S)-quinuclidin-3-yl((R)-7-fluoro-6-(4-isopropoxy-3,5-dimethylphenyl)-2,2-dimethyl-1,2,3,4-tetrahydronaphthalen-1-yl)carbamate], the IC50 in test [1] amounted to 3.1 nM; in test [2] (Homo sapiens, Jurkat, 72 h), 12.9 nM.

In the case of `CCCCOc1c(C)cc(-c2cc3c(cc2F)[C@H](NC(=O)O[C@@H]2CN4CCC2CC4)C(C)(C)CC3)cc1C` [Example 183, (S)-quinuclidin-3-yl((R)-6-(4-butoxy-3,5-dimethylphenyl)-7-fluoro-2,2-dimethyl-1,2,3,4-tetrahydronaphthalen-1-yl)carbamate], the IC50 came to 1.6 nM in test [1] and 7.6 nM in test [2] (Homo sapiens, Jurkat, 72 h).

As to `COc1cccc(-c2cc3c(cc2F)[C@H](NC(=O)O[C@@H]2CN4CCC2CC4)C(C)(C)CC3)c1` [Example 184, (S)-quinuclidin-3-yl((R)-7-fluoro-6-(3-methoxyphenyl)-2,2-dimethyl-1,2,3,4-tetrahydronaphthalen-1-yl)carbamate], the IC50 in test [1] amounted to 0.3 nM; in test [2] (Homo sapiens, Jurkat, 72 h) it was 2.29 nM.

As to `CCOc1cccc(-c2cc3c(cc2F)[C@H](NC(=O)O[C@@H]2CN4CCC2CC4)C(C)(C)CC3)c1` [Example 185, (S)-quinuclidin-3-yl((R)-6-(3-ethoxyphenyl)-7-fluoro-2,2-dimethyl-1,2,3,4-tetrahydronaphthalen-1-yl)carbamate], the IC50 in test [1] came to 0.3 nM; in test [2] (Homo sapiens, Jurkat, 72 h), 3.6 nM.

With `CCCCOc1cccc(-c2cc3c(cc2F)[C@H](NC(=O)O[C@@H]2CN4CCC2CC4)C(C)(C)CC3)c1` [Example 186, (S)-quinuclidin-3-yl((R)-6-(3-butoxyphenyl)-7-fluoro-2,2-dimethyl-1,2,3,4-tetrahydronaphthalen-1-yl)carbamate], the IC50 came out at 0.46 nM in test [1] and 0.71 nM in test [2] (Homo sapiens, Jurkat, 72 h).

As to `CCc1cccc(-c2cc3c(cc2F)[C@H](NC(=O)O[C@@H]2CN4CCC2CC4)C(C)(C)CC3)c1` [Example 187, (S)-quinuclidin-3-yl((R)-6-(3-ethylphenyl)-7-fluoro-2,2-dimethyl-1,2,3,4-tetrahydronaphthalen-1-yl)carbamate], the half-maximal inhibitory concentration (IC50) in test [1] worked out at 0.51 nM; in test [2] (Homo sapiens, Jurkat, 72 h), 1.3 nM.

In the case of `CCCc1cccc(-c2cc3c(cc2F)[C@H](NC(=O)O[C@@H]2CN4CCC2CC4)C(C)(C)CC3)c1` [Example 188, (S)-quinuclidin-3-yl((R)-7-fluoro-2,2-dimethyl-6-(3-propylphenyl)-1,2,3,4-tetrahydronaphthalen-1-yl)carbamate], the concentration for half-maximal inhibition (IC50) in test [1] was found to be 0.84 nM; in test [2] (Homo sapiens, Jurkat, 72 h) it was 2.7 nM.

With `CC(C)Cc1cccc(-c2cc3c(cc2F)[C@H](NC(=O)O[C@@H]2CN4CCC2CC4)C(C)(C)CC3)c1` [Example 189, (S)-quinuclidin-3-yl((R)-7-fluoro-6-(3-isobutylphenyl)-2,2-dimethyl-1,2,3,4-tetrahydronaphthalen-1-yl)carbamate], the IC50 in test [1] was determined as 1.04 nM; in test [2] (Homo sapiens, Jurkat, 72 h) it was 6 nM.

Turning to `CC(C)c1cccc(-c2cc3c(cc2F)[C@H](NC(=O)O[C@@H]2CN4CCC2CC4)C(C)(C)CC3)c1` [Example 190, (S)-quinuclidin-3-yl((R)-7-fluoro-6-(3-isopropylphenyl)-2,2-dimethyl-1,2,3,4-tetrahydronaphthalen-1-yl)carbamate], the IC50 was determined as 0.72 nM in test [1] and 1.9 nM in test [2] (Homo sapiens, Jurkat, 72 h).

As to `CC(C)COc1cccc(-c2cc3c(cc2F)[C@H](NC(=O)O[C@@H]2CN4CCC2CC4)C(C)(C)CC3)c1` [Example 191, (S)-quinuclidin-3-yl((R)-7-fluoro-6-(3-isobutoxyphenyl)-2,2-dimethyl-1,2,3,4-tetrahydronaphthalen-1-yl) carbamate], the IC50 in test [1] (% GCS activity, A549 cell lysate, 37° C. for 90 minutes, read-out: IC50) is 0.62 nM; in test [2] (read-out: IC50), 2.28 nM.
